Reference: the SangsterLogP compilation

Test: method code SF, from DOI: 10.1021/jm00128a037, PMID: 2754714

| Compound | logP |
| --- | --- |
| CCCCOC(=O)CCCc1cc(CN2CCCC2)c(O)c(CN2CCCC2)c1 | 1.11 |
| CC(C)OC(=O)Cc1cc(CN2CCCC2)c(O)c(CN2CCCC2)c1 | -0.41 |
| CCCOC(=O)CCc1cc(CN2CCCC2)c(O)c(CN2CCCC2)c1 | -0.11 |
| CCOC(=O)Cc1cc(CN2CCCC2)c(O)c(CN2CCCC2)c1 | -0.74 |
| CCCOC(=O)Cc1cc(CN2CCCC2)c(O)c(CN2CCCC2)c1 | -0.37 |
| CC(C)COC(=O)Cc1cc(CN2CCCC2)c(O)c(CN2CCCC2)c1 | 0.1 |
| CC(C)OC(=O)CCc1cc(CN2CCCC2)c(O)c(CN2CCCC2)c1 | -0.21 |
| CC(C)COC(=O)CCc1cc(CN2CCCC2)c(O)c(CN2CCCC2)c1 | 0.19 |
| CCCCOC(=O)Cc1cc(CN2CCCC2)c(O)c(CN2CCCC2)c1 | 0.18 |
| CCCCOC(=O)CCc1cc(CN2CCCC2)c(O)c(CN2CCCC2)c1 | 0.3 |
| CC(C)COC(=O)CCCc1cc(CN2CCCC2)c(O)c(CN2CCCC2)c1 | 0.86 |
